Data on 3 compounds can be found in article PMC8428848, “Ancient role of sulfakinin/cholecystokinin-type signalling in inhibitory regulation of feeding processes revealed in an echinoderm” (eLife, 2021).

One assay has as its target T1, ArSK/CCKR (Asterias rubens, UniProt A0A8F2ZGB9).
T1 sequence (A0A8F2ZGB9 1-434): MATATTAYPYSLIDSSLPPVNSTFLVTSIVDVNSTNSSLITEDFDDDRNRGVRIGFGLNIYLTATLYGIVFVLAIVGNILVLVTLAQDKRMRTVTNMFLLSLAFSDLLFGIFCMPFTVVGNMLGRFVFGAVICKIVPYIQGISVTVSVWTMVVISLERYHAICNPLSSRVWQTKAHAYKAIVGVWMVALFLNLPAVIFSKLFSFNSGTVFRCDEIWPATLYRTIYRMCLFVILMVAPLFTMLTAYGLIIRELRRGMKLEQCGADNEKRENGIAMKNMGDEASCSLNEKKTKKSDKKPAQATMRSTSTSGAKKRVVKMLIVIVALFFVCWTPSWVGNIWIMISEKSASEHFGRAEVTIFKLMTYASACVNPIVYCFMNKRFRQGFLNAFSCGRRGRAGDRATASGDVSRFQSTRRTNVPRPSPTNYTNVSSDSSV
Briefly: Aequorin bioluminescence receptor assay in CHO-K1 cells (G5A) co-transfected with ArSK/CCKR and human Gα16. Format: cell-based. Particulars: for pEC50: luminescence as % of maximal response, four to six independent transfections, two to three replicates each, 3 × 10^−17 to 10^−4 M. The text has this:
(§1) To enable testing of ArSK/CCK1 and ArSK/CCK2 as candidate ligands for ArSK/CCKR, a full-length cDNA encoding ArSK/CCKR was synthesized by GenScript (Piscataway, NJ) and cloned into pcDNA 3.1+ vector (Invitrogen, Thermo Fisher Scientific, Waltham, MA). A partial Kozak translation initiation sequence (CACC) was introduced upstream to the start codon (ATG). CHO-K1 cells stably expressing the mitochondrial targeted calcium-sensitive bioluminescent reporter GFP-aequorin fusion protein (G5A) ([Baubet et al., 2000]) were used as a heterologous expression system for ArSK/CCKR. These cells have been used previously for neuropeptide receptor deorphanisation ([Bauknecht and Jékely, 2015]) and were generously supplied to us by Dr Gáspár Jékely (University of Exeter). The cell line was generated using the CHO-K1 cell line from Sigma-Aldrich (85051005; RRID: CVCL_0214), which is certified by the European Collection of Authenticated Cell Cultures (ECACC), and expression of the GFP-aequorin fusion protein (G5A) in the cell line was determined by functionality in displaying calcium-activated luminescence. […] Cells were cultured, co-transfected with the pcDNA 3.1+ vector containing the ArSK/CCKR cDNA sequence and plasmids encoding the promiscuous human G-protein Gα16. Then bioluminescence-based receptor assays were performed, as described previously for A. rubens luqin-type receptors ([Yañez-Guerra et al., 2018]).
[…] Concentration-response data were determined as a percentage of the highest response for each peptide (100% activation). EC50 values were calculated from concentration-response curves based on four to six independent transfections and averaging two to three replicates in each transfection using Prism 6.0 (RRID:SCR_002798; GraphPad software, La Jolla, CA). Cells transfected with an empty vector were used for control experiments.

Assay [1] deals with cardiac stomach preparations. As to the kind of experiment: In vitro contraction of cardiac stomach preparations (organ bath). The following applies: for contraction of cardiac stomach preparations: in vitro, 1 nM to 1 μM, n = 5–9; for effect compared with NGFFYamide (100 nM): peptide 1 µM, Student's t-test p > 0.05, data not shown. Also on record: species or system Asterias rubens. The method, then:
(§2) Effects of peptides on preparations were tested and recorded using an isotonic transducer (MLT0015, ADInstruments Pty Ltd) connected to a bridge amplifier (FE221 Bridge Amp, ADInstruments Pty Ltd) linked to PowerLab data acquisition hardware (2/36, ADInstruments Pty Ltd). Data were collected and analysed using LabChart (RRID:SCR_017551; v8.0.7) software installed on a laptop computer (Lenovo E540, Windows 7 Professional). Stock solutions of synthetic peptides were prepared in distilled water and added to the organ bath to achieve final concentrations ranging from 0.1 nM to 1 μM. To assess the viability of preparations and to enable normalization of responses to ArSK/CCK1 or ArSK/CCK2, the starfish neuropeptide NGFFYamide (100 nM) was tested on cardiac stomach preparations and acetylcholine (10 µM) was tested on tube foot and apical muscle preparations. To assess the importance of tyrosine sulphation for peptide bioactivity, a non-sulphated analog of ArSK/CCK2 (ArSK/CCK2(ns)) was also tested on cardiac stomach (n = 5), tube foot, and apical muscle preparations (data not shown).

Assay [2] deals with apical muscle preparations. As to the kind of experiment: In vitro contraction of apical muscle preparations (organ bath). The following applies: for contraction of apical muscle preparations: in vitro; for contracting action on apical muscle, % of the effect of 10 µM acetylcholine: highest concentration tested (1 µM), n = 20–23. Details: species or system Asterias rubens. The method, then:
as §2

A further assay concerns Asterias rubens. Briefly: In vivo retraction of the everted cardiac stomach after injection. Particulars: for cardiac stomach retraction in vivo: injection of 10 nmol (10 μl of 1 mM) into perivisceral coelom, eversion induced with 2% MgCl2 in seawater, 6 min; for reduction in the area of cardiac stomach everted: within 360 s after injection of 10 mol (10 µl 1 mM), normalized to area at T0, n = 6 (ArSK/CCK1), 6 (ArSK/CCK2), 8 (ArSK/CCK2(ns)). The method, then: Therefore, experiments were performed to investigate if ArSK/CCK1 and ArSK/CCK2 also trigger cardiac stomach retraction in A. rubens. Twenty specimens of A. rubens, which had been withheld from a food supply for 1 week, were placed in a glass tank containing 2% magnesium chloride (MgCl2; Sigma-Aldrich, Gillingham, UK) dissolved in seawater, which acts as a muscle relaxant in marine invertebrates ([Mayer, 1909]). This treatment conveniently and reproducibly causes eversion of the cardiac stomach in A. rubens, typically within a period of ~30 min ([Semmens et al., 2013]). Hamilton 75 N 10 μl syringes (Sigma-Aldrich, Gillingham, UK) were used to inject test compounds into the perivisceral coelom of animals, inserting the needle through the aboral body wall of the arms proximal to the junctions with the central disk region. Care was taken to inject neuropeptides (ArSK/CCK1, ArSK/CCK2 and ArSK/CCK2(ns)) or distilled water (control) into the perivisceral coelom and not into the cardiac stomach. All animals were first injected with 10 μl of distilled water (control) and video-recorded for 6 min. The same animals were then injected with 10 μl of 1 mM peptide (10 nmol) and video-recorded for 6 min. Static images from video recordings were captured at 30 s intervals from the time of injection. Then the two-dimensional area of everted cardiac stomach was measured from the images using the ImageJ software (version 1.0; http://rsb.info.nih.gov/ij) and normalized as a percentage of the area of cardiac stomach everted at the time of injection (T0).

Assay [3] has as its system CHO-K1 cells transfected with an empty vector. As to the kind of experiment: Control: CHO-K1 aequorin (G5A) cells transfected with empty pcDNA 3.1(+) vector. It counts as cell-based, Chinese hamster.
Excerpt: as §1
The peptides were diluted in distilled water and tested as candidate ligands for ArSK/CCKR at concentrations ranging from 3 × 10^−17 to 10^−4 M. Concentration-response data were determined as a percentage of the highest response for each peptide (100% activation). EC50 values were calculated from concentration-response curves based on four to six independent transfections and averaging two to three replicates in each transfection using Prism 6.0 (RRID:SCR_002798; GraphPad software, La Jolla, CA). Cells transfected with an empty vector were used for control experiments.

pEC50: −log10 of the molar value. Square brackets hold non-standard residues; d marks the D form. Peptide text beside a SMILES is read from it. sY = N[C@@H](Cc1ccc(OS(=O)(=O)O)cc1)C(=O)O; pGlu = O=C1CC[C@@H](C(=O)O)N1

Usually pEC50 stands for the EC50 on a negative log10 scale, so that one unit is a factor of ten.

For `CC(C)C[C@H](NC(=O)CNC(=O)[C@H](Cc1ccccc1)NC(=O)CNC(=O)[C@H](Cc1ccc(O)cc1)NC(=O)[C@H](CCC(N)=O)NC(=O)[C@H](CC(=O)O)NC(=O)[C@H](CC(=O)O)NC(=O)CNC(=O)CN)C(=O)N[C@@H](Cc1ccccc1)C(=O)N[C@@H](Cc1ccccc1)C(N)=O` [ArSK/CCK2(ns)] (H-GGDDQYGFGLFF-NH2; N-terminus assumed), on ArSK/CCKR (from EC50 values), the “potency as ligand for ArSK/CCKR compared with ArSK/CCK1 and ArSK/CCK2” value is “five to six orders of magnitude less potent”. The compound also showed a pEC50 on ArSK/CCKR of 4.32. The “contraction of cardiac stomach preparations” value in assay [1] is listed as “modest contraction”. Further, the “contraction of apical muscle preparations” value in assay [2] is on record as “no effect”. In addition, in the assay with Asterias rubens, the “cardiac stomach retraction in vivo” value is “did not trigger cardiac stomach retraction” and the “reduction in the area of cardiac stomach everted” value (“reduction in the area” below) is “no effect”. Besides, the luminescence response result in assay [3] was “did not elicit luminescence responses”.
On to `CC(C)C[C@H](NC(=O)CNC(=O)[C@H](Cc1ccccc1)NC(=O)CNC(=O)[C@H](Cc1ccc(OS(=O)(=O)O)cc1)NC(=O)[C@H](CCC(N)=O)NC(=O)[C@H](CC(=O)O)NC(=O)[C@H](CC(=O)O)NC(=O)CNC(=O)CN)C(=O)N[C@@H](Cc1ccccc1)C(=O)N[C@@H](Cc1ccccc1)C(N)=O` [ArSK/CCK2] (H-GGDDQ[sY]GFGLFF-NH2; N-terminus assumed), for which, on ArSK/CCKR, the pEC50 was 9.92. In assay [1], the “contraction of cardiac stomach preparations” value is recorded as “concentration-dependent contraction” and the “effect compared with NGFFYamide (100 nM)” value was “not significantly different”. Also, in assay [2], the “contracting action on apical muscle, % of the effect of 10 µM acetylcholine” value is recorded as ~ 40% and the “contraction of apical muscle preparations” value is reported as “caused contraction”. Moreover, in the assay with Asterias rubens, the “cardiac stomach retraction in vivo” value is reported as “triggered cardiac stomach retraction” and the “reduction in the area” value was greater than 50%. Moreover, the luminescence response entry in assay [3] is listed as “did not elicit luminescence responses”.
With `CC(C)C[C@H](NC(=O)CNC(=O)[C@H](Cc1c[nH]cn1)NC(=O)CNC(=O)[C@H](Cc1ccc(OS(=O)(=O)O)cc1)NC(=O)[C@H](CC(=O)O)NC(=O)[C@H](CC(=O)O)NC(=O)[C@@H](NC(=O)[C@H](CCCCN)NC(=O)[C@H](CO)NC(=O)[C@@H]1CCC(=O)N1)C(C)C)C(=O)N[C@@H](Cc1ccccc1)C(=O)N[C@@H](Cc1c[nH]c2ccccc12)C(N)=O` [ArSK/CCK1] ([pGlu]SKVDD[sY]GHGLFW-NH2), the pEC50 on ArSK/CCKR was 9.60. For the same compound, in assay [1], the “contraction of cardiac stomach preparations” value is listed as “concentration-dependent contraction” and the “effect compared with NGFFYamide (100 nM)” value is on record as “not significantly different”. Besides, in assay [2], the “contracting action on apical muscle, % of the effect of 10 µM acetylcholine” value is ~ 40% and the “contraction of apical muscle preparations” value is recorded as “caused contraction”. Moreover, in the assay on Asterias rubens, the “cardiac stomach retraction in vivo” value is “triggered cardiac stomach retraction” and the “reduction in the area” value was greater than 50%. Also, in assay [3], the luminescence response result is on record as “did not elicit luminescence responses”.
